# Test results as given in patent US8664257B2, “Oxygen-substituted 3-heteroaroylamino-propionic acid derivatives and their use as pharmaceuticals” (Sanofi, priority 2010, dated 2014).
# Molecular target: T1, Recombinant human cathepsin A (Homo sapiens, UniProt P10619)
# T1 construct: Recombinant human cathepsin A (residues 29-480, with a C-terminal 10-His tag); 10-His (C); purchased R&D Systems 1049-SE
# T1 sequence (P10619 29-312 limits assumed): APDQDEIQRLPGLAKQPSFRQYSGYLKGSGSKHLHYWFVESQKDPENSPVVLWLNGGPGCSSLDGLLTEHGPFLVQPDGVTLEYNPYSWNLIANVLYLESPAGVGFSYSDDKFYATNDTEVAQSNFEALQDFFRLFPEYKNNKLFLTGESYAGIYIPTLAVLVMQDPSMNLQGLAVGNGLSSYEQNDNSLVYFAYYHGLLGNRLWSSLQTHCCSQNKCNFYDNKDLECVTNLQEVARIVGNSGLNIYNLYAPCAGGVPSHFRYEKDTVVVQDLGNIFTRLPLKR
# T1 sequence (P10619 327-480 limits assumed): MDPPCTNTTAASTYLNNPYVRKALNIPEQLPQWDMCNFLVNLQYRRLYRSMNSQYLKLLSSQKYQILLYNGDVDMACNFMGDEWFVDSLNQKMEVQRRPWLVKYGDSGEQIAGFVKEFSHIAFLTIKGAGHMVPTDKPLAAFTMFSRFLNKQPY
# Assay: Cathepsin A inhibitory activity
# Assay type: biochemical
# Details: pharmacological test "Cathepsin A inhibitory activity"; IC50 given as class A/B/C; read-out: Activity (2): Cathepsin A inhibitory activity, IC50 class
# In short: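 Read-out was microfluidic separation of cleaved vs. uncleaved Bodipy FL-bradykinin (2 μM), giving turnover, % inhibition and IC50. Compound and 833 ng/ml enzyme met for 15 min RT in pH 5.5 MES/DTT before substrate (15 min RT). The 29-480 His-tagged human enzyme was first activated by cathepsin L, then E-64 (10 μM).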
row,IC50 [nM],SMILES
1,100 to 1000,COc1ccc(C(CC(=O)O)NC(=O)c2cc(O)n(-c3ccccc3Cl)n2)c(C)c1 (stereo not drawn) [Example 203]
2,100 to 1000,COc1ccc(Cl)cc1C(CC(=O)O)NC(=O)c1cc(O)n(-c2ccccc2F)n1 (stereo not drawn) [Example 234]
3,1000 to 30000,COc1ccc(C(CC(=O)O)NC(=O)c2cc(O)n(-c3ccccc3)n2)c(OC)c1 (stereo not drawn) [Example 161]
4,100 to 1000,O=C(O)C[C@H](NC(=O)c1cc(O)n(-c2ccc(F)cc2F)n1)c1cccc(Cl)c1 [Example 184]
5,100 to 1000,O=C(O)C[C@H](NC(=O)c1cc(O)n(-c2cccc(Cl)c2)n1)c1c(F)cccc1F [Example 265]
6,1000 to 30000,COc1ccccc1[C@@H](NC(=O)c1cc(O)n(-c2ccc(F)cc2F)n1)[C@@H](O)C(=O)O [Example 188]

# Same assay, conditions: read-out: Activity (2): Cathepsin A inhibitory activity (IC50 class)
row,IC50 [nM],SMILES
1,100 to 1000,"COc1cc(-c2ccccc2)ccc1C(CC(=O)O)NC(=O)c1cc(O)n(-c2ccccc2Cl)n1 (stereo not drawn) [Example 558, 3-{[1-(2-Chloro-phenyl)-5-hydroxy-1H-pyrazole-3-carbonyl]-amino}-3-(3-methoxy-biphenyl-4-yl)-propionic acid]"
2,100 to 1000,"Cc1ccc(C(CC(=O)O)NC(=O)c2cc(O)n(-c3ccccc3F)n2)c(F)c1 (stereo not drawn) [Example 555, 3-(2-Fluoro-4-methyl-phenyl)-3-{[1-(2-fluoro-phenyl)-5-hydroxy-1H-pyrazole-3-carbonyl]-amino}-propionic acid]"
3,100 to 1000,CCOc1cc(C(=O)N[C@@H](CC(=O)O)c2ccccc2C(F)(F)F)nn1-c1ccccc1F [Example 721]
4,100 to 1000,O=C(O)CC(NC(=O)c1cc(O)n(-c2ccccc2F)n1)c1ccc(-n2cccn2)cc1 (stereo not drawn) [Example 582]
5,< 100,Cc1ccccc1[C@H](CC(=O)O)NC(=O)c1cc(OCc2ccncc2)n(-c2ccccc2F)n1 [Example 629]
6,< 100,COc1cc(C(=O)N[C@@H](CC(=O)O)c2cccc(C)c2)nn1-c1ccccc1F [Example 670]
7,< 100,Cc1ccc([C@H](CC(=O)O)NC(=O)c2cc(OCC(C)(O)c3ccccc3)n(-c3ccccc3F)n2)cc1 (stereo partly drawn) [Example 636]
8,100 to 1000,O=C(O)CC(NC(=O)c1cc(O)n(-c2ccccc2F)n1)c1ccc(-c2ccccc2F)cc1 (stereo not drawn) [Example 584]
9,< 100,Cc1ccc([C@H](CC(=O)O)NC(=O)c2cc(OCC3CC3)n(-c3ccccc3F)n2)cc1 [Example 695]
10,< 100,Cc1cc(COc2cc(C(=O)N[C@@H](CC(=O)O)c3ccccc3C)nn2-c2ccccc2F)no1 [Example 657]
11,< 100,"Cc1cccc([C@H](CC(=O)O)NC(=O)c2cc(OCC3CC3)n(-c3ccccc3F)n2)c1 [Example 690, (S)-3-{[5-Cyclopropylmethoxy-1-(2-fluoro-phenyl)-1H-pyrazole-3-carbonyl]-amino}-3-m-tolyl-propionic acid]"

row,SMILES,IC50 [nM]
1,"Cc1cccc([C@H](CC(=O)O)NC(=O)c2cc(OC[C@@H](O)C(C)(C)C)n(-c3ccccc3F)n2)c1 [Example 792, (S)-3-{[1-(2-Fluoro-phenyl)-5-((S)-2-hydroxy-3,3-dimethyl-butoxy)-1H-pyrazole-3-carbonyl]-amino}-3-m-tolyl-propionic acid]",< 100

# Same assay, conditions: read-out: Activity (2): Cathepsin A inhibitory activity, IC50 class
row,IC50 [nM],SMILES
1,100 to 1000,O=C(O)C[C@H](NC(=O)c1cc(O)n(-c2ccc(F)cc2)n1)c1ccc(Cl)cc1Cl [Example 370]
2,100 to 1000,COc1ccc([C@H](CC(=O)O)NC(=O)c2cc(O)n(-c3ccccc3)n2)cc1 [Example 374]
3,< 100,Cc1ccccc1[C@H](CC(=O)O)NC(=O)c1cc(O)n(-c2cccc(F)c2)n1 [Example 74]
4,1000 to 30000,O=C(O)C[C@H](NC(=O)c1cc(O)n(-c2ccc(F)cc2F)n1)c1cccnc1 [Example 389]
5,100 to 1000,Cc1ccccc1C(CC(=O)O)NC(=O)c1cc(O)n(-c2ccc(F)c(Cl)c2)n1 (stereo not drawn) [Example 80]
6,100 to 1000,Cc1ccc(C(CC(=O)O)NC(=O)c2cc(O)n(-c3ccccc3)n2)cc1 (stereo not drawn) [Example 64]
7,100 to 1000,O=C(O)C[C@H](NC(=O)c1cc(O)n(-c2ccccc2F)n1)c1c(F)cccc1F [Example 125]
8,100 to 1000,COc1ccc([C@H](CC(=O)O)NC(=O)c2cc(O)n(-c3ccc(F)cc3F)n2)cc1 [Example 382]
9,100 to 1000,O=C(O)C[C@H](NC(=O)c1cc(O)n(-c2ccccc2)n1)c1ccc(Cl)cc1Cl [Example 95]
10,100 to 1000,COc1cccc(-n2nc(C(=O)N[C@@H](CC(=O)O)c3ccccc3C)cc2O)c1 [Example 94]
11,100 to 1000,O=C(O)C[C@H](NC(=O)c1cc(O)n(-c2ccc(F)cc2)n1)c1cccc(Cl)c1 [Example 350]
12,1000 to 30000,COc1cccc([C@H](CC(=O)O)NC(=O)c2cc(O)n(-c3ccc(Cl)cc3)n2)c1 [Example 278]
13,< 100,O=C(O)CC(NC(=O)c1cc(O)n(-c2ccccc2F)n1)c1ccc(-c2ccc(F)cc2)cc1 (stereo not drawn) [Example 126]
14,1000 to 30000,Cc1ccc(C)c(-n2nc(C(=O)NC(CC(=O)O)c3ccc(F)cc3)cc2O)c1 (stereo not drawn) [Example 1]
15,100 to 1000,O=C(O)CC(NC(=O)c1cc(O)n(-c2cccc(F)c2)n1)c1cccc(Cl)c1F (stereo not drawn) [Example 322]
16,100 to 1000,O=C(O)C[C@H](NC(=O)c1cc(O)n(-c2cccc(F)c2)n1)c1cccnc1 [Example 334]
17,100 to 1000,COc1ccccc1[C@H](CC(=O)O)NC(=O)c1cc(O)n(-c2ccc(F)cc2)n1 [Example 342]
18,100 to 1000,COc1ccc([C@H](CC(=O)O)NC(=O)c2cc(O)n(-c3ccccc3Cl)n2)cc1 [Example 392]
19,1000 to 30000,O=C(O)CC(NC(=O)c1cc(O)n(-c2ccccc2Cl)n1)c1ccc(-n2ccnc2)cc1 (stereo not drawn) [Example 116]
20,100 to 1000,Cc1cc(F)ccc1C(CC(=O)O)NC(=O)c1cc(O)n(-c2ccc(F)cc2)n1 (stereo not drawn) [Example 364]
21,< 100,O=C(O)C[C@H](NC(=O)c1cc(O)n(-c2ccccc2F)n1)c1cccc(Cl)c1Cl [Example 399]

row,SMILES,IC50 [nM]
1,"CC(C)C(C)(O)COc1cc(C(=O)N[C@@H](CC(=O)O)c2ccccc2C(F)(F)F)nn1-c1ccccc1F (stereo partly drawn) [Example 812, (S)-3-{[1-(2-Fluoro-phenyl)-5-(2-hydroxy-2,3-dimethyl-butoxy)-1H-pyrazole-3-carbonyl]-amino}-3-(2-trifluoromethyl-phenyl)-propionic acid]",< 100
2,"CC(C)(C)[C@H](O)COc1cc(C(=O)N[C@@H](CC(=O)O)c2ccc(Cl)cc2)nn1-c1ccccc1F [Example 794, (S)-3-(4-Chloro-phenyl)-3-{[1-(2-fluoro-phenyl)-5-((S)-2-hydroxy-3,3-dimethyl-butoxy)-1H-pyrazole-3-carbonyl]-amino}-propionic acid]",< 100
3,"CC(C)[C@](C)(O)COc1cc(C(=O)N[C@@H](CC(=O)O)c2ccccc2F)nn1-c1ccccc1F [Example 835, (S)-3-(2-Fluoro-phenyl)-3-{[1-(2-fluoro-phenyl)-5-((S)-2-hydroxy-2,3-dimethyl-butoxy)-1H-pyrazole-3-carbonyl]-amino}-propionic acid]",< 100

# Same assay, conditions: recombinant human cathepsin A 833 ng/ml, Bodipy FL-labeled bradykinin 2 μM, pH 5.5; read-out: CATH-A IC50
row,IC50 [nM],SMILES
1,151,"Cc1ccc(F)cc1C(CC(=O)O)NC(=O)c1cc(O)n(-c2ccccc2Cl)n1 (stereo not drawn) [Example 461, 3-{[1-(2-Chloro-phenyl)-5-hydroxy-1H-pyrazole-3-carbonyl]-amino}-3-(5-fluoro-2-methyl-phenyl)-propionic acid]"
2,699,"COc1cc(-c2ccccc2)ccc1C(CC(=O)O)NC(=O)c1cc(O)n(-c2ccccc2Cl)n1 (stereo not drawn) [Example 558, 3-{[1-(2-Chloro-phenyl)-5-hydroxy-1H-pyrazole-3-carbonyl]-amino}-3-(3-methoxy-biphenyl-4-yl)-propionic acid]"
3,239,"Cc1ccc(C(CC(=O)O)NC(=O)c2cc(O)n(-c3ccccc3F)n2)c(F)c1 (stereo not drawn) [Example 555, 3-(2-Fluoro-4-methyl-phenyl)-3-{[1-(2-fluoro-phenyl)-5-hydroxy-1H-pyrazole-3-carbonyl]-amino}-propionic acid]"
4,738,"O=C(O)CC(NC(=O)c1cc(O)n(-c2cccc(Cl)c2)n1)c1cc(F)ccc1F (stereo not drawn) [Example 465, 3-{[1-(3-Chloro-phenyl)-5-hydroxy-1H-pyrazole-3-carbonyl]-amino}-3-(2,5-difluoro-phenyl)-propionic acid]"
5,102,"O=C(O)CC(NC(=O)c1cc(O)n(-c2cccc(Cl)c2)n1)c1cc(Cl)ccc1Cl (stereo not drawn) [Example 511, 3-{[1-(3-Chloro-phenyl)-5-hydroxy-1H-pyrazole-3-carbonyl]-amino}-3-(2,5-dichloro-phenyl)-propionic acid]"
6,562,"O=C(O)CC(NC(=O)c1cc(O)n(-c2cccc(Cl)c2)n1)c1cc(F)ccc1C(F)(F)F (stereo not drawn) [Example 466, 3-{[1-(3-Chloro-phenyl)-5-hydroxy-1H-pyrazole-3-carbonyl]-amino}-3-(5-fluoro-2-trifluoromethyl-phenyl)-propionic acid]"

# Same assay, conditions: recombinant human cathepsin A; read-out: Activity (2): Cathepsin A inhibitory activity, IC50 class
row,IC50 [nM],SMILES
1,100 to 1000,"Cc1ccc(F)cc1C(CC(=O)O)NC(=O)c1cc(O)n(-c2ccccc2Cl)n1 (stereo not drawn) [Example 461, 3-{[1-(2-Chloro-phenyl)-5-hydroxy-1H-pyrazole-3-carbonyl]-amino}-3-(5-fluoro-2-methyl-phenyl)-propionic acid]"
2,100 to 1000,O=C(O)C[C@H](NC(=O)c1cc(O)n(-c2cccc(Cl)c2)n1)c1cccc(Cl)c1 [Example 415]
3,100 to 1000,Cc1ccc(C)c(C(CC(=O)O)NC(=O)c2cc(O)n(-c3ccccc3F)n2)c1 (stereo not drawn) [Example 406]
4,1000 to 30000,O=C(O)C[C@H](NC(=O)c1cc(O)n(-c2cccc(Cl)c2)n1)c1ccc(F)cc1 [Example 411]
5,< 100,"COc1cc(C(=O)N[C@@H](CC(=O)NC2CC2)c2ccccc2C)nn1-c1ccccc1F [Example 933, 1-(2-Fluoro-phenyl)-5-methoxy-1H-pyrazole-3-carboxylic acid ((S)-2-cyclopropylcarbamoyl-1-o-tolyl-ethyl)-amide]"
6,100 to 1000,"O=C(O)CC(NC(=O)c1cc(O)n(-c2cccc(Cl)c2)n1)c1cc(F)ccc1F (stereo not drawn) [Example 465, 3-{[1-(3-Chloro-phenyl)-5-hydroxy-1H-pyrazole-3-carbonyl]-amino}-3-(2,5-difluoro-phenyl)-propionic acid]"
7,100 to 1000,"O=C(O)CC(NC(=O)c1cc(O)n(-c2cccc(Cl)c2)n1)c1cc(Cl)ccc1Cl (stereo not drawn) [Example 511, 3-{[1-(3-Chloro-phenyl)-5-hydroxy-1H-pyrazole-3-carbonyl]-amino}-3-(2,5-dichloro-phenyl)-propionic acid]"
8,1000 to 30000,CN(C)c1ccc(C(CC(=O)O)NC(=O)c2cc(O)n(-c3ccc(F)cc3)n2)c(Cl)c1 (stereo not drawn) [Example 490]
9,100 to 1000,"O=C(O)CC(NC(=O)c1cc(O)n(-c2cccc(Cl)c2)n1)c1cc(F)ccc1C(F)(F)F (stereo not drawn) [Example 466, 3-{[1-(3-Chloro-phenyl)-5-hydroxy-1H-pyrazole-3-carbonyl]-amino}-3-(5-fluoro-2-trifluoromethyl-phenyl)-propionic acid]"
